The results in this text go back to patent US20140107218A1, “METHODS FOR MAINTAINING EYE HEALTH AND AMELIORATING OPTHALMIC MALADIES IN ANIMALS” (NESTEC SA, priority 2012, published 2014).

This assay has as its system rabbit lenses. The assay can be described thus: Calcium-induced lens opacification in cultured rabbit lenses, transparency evaluation. The assay is classed as cell-based. The settings on record: 20 mM CaCl2 plus polyamine 100 mM; for Effect on calcium-induced lens opacification (in words): 72 hours; for Percent Light Transmittance After Treatments (Average): 72 hours of treatment, absorbance at 394 nm, triplicate, Control 73.3, Ca alone 47.3. On the procedure:
Rabbit eyes were obtained from a rabbit renderer and were dissected within twenty-four (24) hours of the animal's death. The lenses were removed aseptically and cultured in M199 media, 20 mM HEPES, 100 units/ml penicillin, […] streptomycin and 0.1% BSA under 5% CO2 at 37° C. in a humidified incubator for twenty-four hours before the start of treatment. Lens opacification was induced with 20 mM CaCl2, according to the method of Hytower and Dering (Hightower Kr, Dering, M (1984) Invest Ophthalmol Vis Sci 251:108-111). Polyamines were added at a concentration of 100 mM. All experiments were done in triplicate.
Transparency Evaluation: When proteins are modified or oxidized they aggregate, and cause protein solutions to become cloudy or translucent because the proteins lose solubility. The turbidity of a protein solution is a measure of protein aggregation. Turbidity of the lenses after treatment was determined by measuring the increase in protein absorbency. Control (no Ca++), Ca++ and Ca++ with polyamines spermidine, spermine, or putrescine were collected and homogenized in lysis buffer [50 mM Tris-HCl, pH 8.0; 150 mM NaCl, 1% Igepal and protease inhibitor cocktail (Sigma)] after seventy-two (72) hours of treatment. Absorbance was measured at 394 nm for each sample using a spectrophotometer. Transparency was calculated as a function of the percent transmittance according to Jain (Jain Ak, Lim G, Langford M, Jain Sk (2002) Free Radic Biol Med 33:1615-1621).

`NCCCCN` [Putrescine, putrescine]: the “Effect on calcium-induced lens opacification (in words)” value is given as “reduce calcium-induced lens opacification” and the “Percent Light Transmittance After Treatments (Average)” value came out at 65.7%.
`NCCCCNCCCN` [Spermidine, spermidine]: the “Effect on calcium-induced lens opacification (in words)” value was “reduce calcium-induced lens opacification” and the “Percent Light Transmittance After Treatments (Average)” value turned out to be 56.8%.
As to `NCCCNCCCCNCCCN` [Spermine, spermine], the “Percent Light Transmittance After Treatments (Average)” value came out at 53%.
